Assay results: the supplement of paper PMC10307832

The cell lines below were run with NCC(=O)Nc1ccc(-n2nc(C(F)(F)F)cc2-c2ccc3c(ccc4ccccc43)c2)cc1 + O=C(c1cc(Cc2n[nH]c(=O)c3ccccc23)ccc1F)N1CCN(C(=O)C2CC2)CC1 [Olaparib] (partner 8 µM) (assay: relative viability (nuclei count vs DMSO), 5 days (fraction); higher = more cells survive). Settings: first compound 0.02 µM.
Method in brief: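 Lung cancer cell lines, seeded in 1536-well plates, were treated the following day by pin tool with a single drug or with five library-drug doses (not always all listed) in √10 steps on top of a fixed anchor-drug dose. Cells were fixed and nuclei stained in one step after 5 days, and nuclei were counted. Relative viability is the nuclei count for treated wells divided by that for vehicle wells, reported as medians of duplicate plates.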

In order of falling relative viability:
1. HARA  1.07
2. HCC-44  1.05
3. LXF-289  1.05
4. NCI-H1793  1.05
5. BEN  1
6. IA-LM  0.986
7. LOU-NH91  0.967
8. NCI-H1299  0.96
9. HCC-827  0.916
10. HCC-78  0.9
11. NCI-H1755  0.898
12. NCI-H2405  0.873
13. 201T  0.867
14. NCI-H322M  0.865
15. SW 900  0.86
16. SK-MES-1  0.773
17. NCI-H661  0.773
18. CAL-12T  0.761
19. EPLC-272H  0.731
20. NCI-H1355  0.722
21. HCC-15  0.718
22. A-427  0.701
23. COR-L 105  0.696
24. NCI-H2170  0.689
25. NCI-H2009  0.681
26. NCI-H3122  0.675
27. NCI-H522  0.666
28. NCI-H1734  0.629
29. NCI-H1437  0.623
30. NCI-H2023  0.604
31. NCI-H1792  0.597
32. H3255  0.593
33. NCI-H647  0.593
34. NCI-H2087  0.583
35. NCI-H1648  0.577
36. NCI-H2347  0.572
37. NCI-H441  0.546
38. LCLC-97TM1  0.538
39. NCI-H1395  0.483
40. SK-LU-1  0.477
41. ChaGo-K-1  0.443
42. COR-L23  0.368
43. NCI-H460  0.368
44. NCI-H2228  0.354
45. NCI-H23  0.33
46. PC-14  0.308
47. A549  0.294
48. HOP-62  0.284
49. LU99A  0.284
50. NCI-H1915  0.256
51. NCI-H1651  0.177

Same assay, conditions: first compound 0.06325 µM

In order of falling relative viability:
1. HARA  1.25
2. BEN  1.23
3. LXF-289  1.11
4. NCI-H1648  1.03
5. NCI-H1993  1.01
6. HCC-44  0.994
7. LOU-NH91  0.959
8. NCI-H1793  0.957
9. NCI-H1299  0.916
10. NCI-H1650  0.89
11. NCI-H2405  0.89
12. SW 900  0.881
13. NCI-H2126  0.877
14. 201T  0.868
15. NCI-H1755  0.854
16. HCC-78  0.837
17. NCI-H1666  0.83
18. NCI-H2085  0.802
19. NCI-H727  0.801
20. LCLC-103H  0.793
21. NCI-H1355  0.785
22. LK-2  0.78
23. NCI-H522  0.777
24. EBC-1  0.774
25. COR-L 105  0.772
26. NCI-H596  0.77
27. NCI-H838  0.766
28. NCI-H322M  0.759
29. HCC-15  0.743
30. A-427  0.742
31. CAL-12T  0.735
32. NCI-H661  0.731
33. SK-MES-1  0.727
34. IA-LM  0.722
35. NCI-H2009  0.72
36. EPLC-272H  0.699
37. HCC-827  0.642
38. NCI-H2228  0.641
39. NCI-H2170  0.638
40. NCI-H3122  0.637
41. NCI-H1437  0.62
42. NCI-H2347  0.611
43. NCI-H1734  0.603
44. H3255  0.593
45. NCI-H441  0.58
46. Calu-6  0.578
47. NCI-H647  0.573
48. NCI-H2023  0.543
49. NCI-H2087  0.525
50. NCI-H1792  0.518
51. EMC-BAC-2  0.514
52. SW 1573  0.506
53. ChaGo-K-1  0.488
54. NCI-H2342  0.477
55. NCI-H1395  0.469
56. SK-LU-1  0.463
57. PC-14  0.45
58. NCI-H23  0.442
59. LCLC-97TM1  0.421
60. NCI-H460  0.41
61. HCC-366  0.406
62. COR-L23  0.368
63. HOP-62  0.361
64. NCI-H1703  0.356
65. A549  0.291
66. LU99A  0.289
67. NCI-H1915  0.287
68. NCI-H520  0.285
69. NCI-H1651  0.177

Same assay, conditions: first compound 0.2 µM

In order of falling relative viability:
1. NCI-H1993  1.06
2. NCI-H1648  1.02
3. HCC-78  1.02
4. BEN  0.993
5. HCC-44  0.953
6. IA-LM  0.951
7. LOU-NH91  0.933
8. NCI-H2126  0.925
9. SW 900  0.88
10. NCI-H1650  0.875
11. NCI-H2405  0.863
12. SK-MES-1  0.84
13. EBC-1  0.836
14. NCI-H1666  0.824
15. NCI-H838  0.815
16. NCI-H2085  0.801
17. LK-2  0.799
18. LCLC-103H  0.787
19. NCI-H322M  0.782
20. HARA  0.762
21. NCI-H727  0.754
22. COR-L 105  0.75
23. NCI-H2009  0.75
24. NCI-H596  0.739
25. NCI-H522  0.721
26. A-427  0.679
27. NCI-H1703  0.644
28. NCI-H2170  0.62
29. NCI-H2087  0.592
30. H3255  0.577
31. Calu-6  0.553
32. EMC-BAC-2  0.539
33. SW 1573  0.531
34. NCI-H441  0.52
35. NCI-H2342  0.434
36. ChaGo-K-1  0.388
37. HOP-62  0.381
38. NCI-H520  0.377
39. COR-L23  0.352
40. HCC-366  0.345
41. A549  0.339
42. LCLC-97TM1  0.317
43. LU99A  0.261
